US12415802B1, “Dipyridine benzothiophene derivative compound” (KING FAISAL UNIVERSITY, priority 2025, dated 2025)

Experiment: DPPH radical scavenging antioxidant test
Format: biochemical
Details: 517 nm; for Inhibition (radical scavenging inhibition): 0.2 mL DPPH (0.75 mM), compound (3p M) in ethanol, 30 minutes in the dark; for antioxidant activity (in words): DPPH in vitro test, vitamin C as positive control
Description: A dipyridine benzo[b]thiophene derivative compound comprises 4-(1-benzothiophen-2-yl)-6-ethoxy-2,3′-bipyridine-5-carbonitrile. […] As described herein, the antioxidant activity of 4-(1-benzothiophen-2-yl)-6-ethoxy-2,3′-bipyridine-5-carbonitrile was investigated by 2,2-diphenyl-1-picrylhydrazyl (DPPH) in vitro tests that employ vitamin C as the positive control.
The antioxidant properties of the 4-(1-benzothiophen-2-yl)-6-ethoxy-2,3′-bipyridine-5-carbonitrile compound were studied by adding 0.2 mL DPPH (0.75 mM)) to 4-(1-benzothiophen-2-yl)-6-ethoxy-2,3′-bipyridine-5-carbonitrile (3p M) (4) in ethanol. After 30 minutes of incubation in the dark, the absorbance was read against a blank at 517 nm. Ascorbic acid (Vitamin C) was used as a standard antioxidant (positive control). A blank sample was prepared by 0.2 mL of DPPH in 3 mL ethanol. A negative control sample was run using ethanol instead of the sample. The radical scavenging inhibition was calculated using the following equation: […]
The antioxidant activity for the synthesized compound is listed in Table 1, using Vitamin C as a reference.

## CCOc1nc(-c2cccnc2)cc(-c2cc3ccccc3s2)c1C#N [Product 4, 4-(1-benzothiophen-2-yl)-6-ethoxy-2,3′-bipyridine-5-carbonitrile]
  Inhibition (radical scavenging inhibition): 48%
  antioxidant activity (in words): high antioxidant activities
Listed as III
  antioxidant activity (in words): high potential as an antioxidant compared to vitamin C

## O=C1O[C@H]([C@@H](O)CO)C(O)=C1O [Vit C, Ascorbic acid, reference compound]
  Inhibition (radical scavenging inhibition): 74%
